Assay results taken from patent publication US20080287374A1, “BREAST CANCER-RESISTANT PROTEIN INHIBITOR” (KABUSHIKI KAISHA YAKULT HONSHA, priority 2003, published 2008).
In brackets after ≈: the same amount, converted by molar mass.

Assays:
A549/SN-38-4 cell line [1] = assay: Anticancer drug sensitivity test, A549/SN-38-4; format: cell-based, human; details: stated for the A549/SN-38 cell lines; FIG. 1 shows A549/SN-38-4
Description: Human non-small cell lung cancer A549 cell line was subcultured at 5% CO2 and 37° C. by use of a Ham's F-12 medium containing 10% FBS, 100 U/mL of penicillin, and 100 μg/mL of streptomycin (10% FBS/Ham's F-12). SN-38-resistant A549 cell lines were selected by subculturing the A549 cell line in a medium for two months while the concentration of SN-38 contained in the medium was increased in a stepwise manner (4 to 10 ng/mL). Subsequently, the resultant SN-38-resistant A549 cell lines were subjected to cloning by means of limiting dilution, to thereby establish six cloned SN-38-resistant A549 cell lines (A549/SN-38-1 to 6).
Thereafter, a solution of an anticancer drug in 10% FBS/Ham's F-12 (50 μL) was added to each of the wells, followed by culturing at 5% CO2 and 37° C. for 48 hours. After completion of culturing, the number of viable cells was counted by use of a viable cell counting reagent [TetraColor ONE (trade name), product of Seikagaku Corporation] according to the attached instruction manual. […] “Relative resistance value” is obtained by dividing the IC50 for an A549/SN-38 cell line by the IC50 for the A549 cell line. The greater the relative resistance value, the higher the level of acquired resistance.

A549/SN-38-4 cell line [2] = assay: Effect of flavonoid in overcoming anticancer drug (SN-38) resistance of A549/SN-38 cell line; format: cell-based, human; details: Homo sapiens; concentration of flavonoid for 50% reduction of relative resistance value to SN-38; A549/SN-38-4, 48 hours
Description: The A549 cell line or the A549/SN-38-4 cell line was suspended in 10% FBS/Ham's F-12, and the resultant suspension was inoculated into a 96-well microplate, followed by culturing at 5% CO2 and 37° C. overnight (2×10^3 cells/50 μL/well). Thereafter, a solution of a flavonoid and SN-38 in 10% FBS/Ham's F-12 (25 μL) was added to each of the wells, followed by culturing at 5% CO2 and 37° C. for 48 hours. After completion of culturing, the number of viable cells was counted by use of TetraColor ONE according to the attached instruction manual.

MES-SA/Dx5 cell line = assay: Effect of flavonoid on multidrug (paclitaxel) resistance of MES-SA/Dx5 cell line; format: cell-based, human; details: Homo sapiens; concentration of flavonoid for 50% reduction of relative resistance value to paclitaxel; MES-SA/Dx5 (P-glycoprotein overexpression), 48 hours; read-out: Resistance overcoming effect EC50
Description: Human uterine cancer MES-SA cell line or MES-SA/Dx5 cell line which had acquired multidrug resistance through overexpression of P-glycoprotein (Cancer Res. 45, 4091-4096 (1985)) was suspended in 10% FBS/DMEM, and the resultant suspension was inoculated into a 96-well microplate, followed by culturing at 5% CO2 and 37° C. overnight (3×10^3 cells/50 μL/well). Thereafter, a solution of a flavonoid and paclitaxel in 10% FBS/DMEM (25 μL) was added to each of the wells, followed by culturing at 5% CO2 and 37° C. for 48 hours. After completion of culturing, the number of viable cells was counted by use of TetraColor ONE according to the attached instruction manual.

P388/BCRP cell line = assay: Effect of flavonoid in overcoming anticancer drug resistance in vivo (survival of tumor-implanted mice); set-up: species or system mouse; details: compound 100 mg/kg/day + CPT-11 20 mg/kg/day, intraperitoneally once a day, days 1 to 10; CDF1 mice
Description: Groups of six-week-old female CDF1 mice, each group consisting of 5 mice, were employed. The P388 cell line or the P388/BCRP cell line (1×10^6 cells) was implanted into the peritoneal cavity of each of the mice. […] Merely the solvent was administered to mice in the control group. In order to evaluate the antitumor effect of the flavonoid, survival rate T/C (%) was calculated from the survival days of the tumor-implanted mice by use of the following formula.
Survival rate T/C (%)=(the mean survival days of mice in the treated flavonoid group)÷(the mean survival days of mice in the control group)×100

A549/SN-38-4 cell line [3] = assay: Amount of anticancer drug accumulated in A549/SN-38 cell line; format: cell-based, human; details: both the A549 cell line and the A549/SN-38-4 cell line; SN-38 300 ng/mL, 60 minutes
Description: The A549 cell line or the A549/SN-38-4 cell line (4×10^6 cells/mL) was suspended in 10% FBS/RPMI1640 (1 mL), and an SN-38 DMSO solution (1 μL, final concentration: 300 ng/mL) was added to the resultant suspension, followed by incubation at 37° C. for 60 minutes. Thereafter, centrifugation was performed (2° C., 1,400×g, 1 min), and the resultant supernatant was removed. Ice-cooled PBS was added to the thus-precipitated cells, and the cells were resuspended therein, followed by centrifugation (2° C., 1,400×g, 1 min) for washing of the cells. This washing procedure was performed again, followed by addition of PBS (375 μL) and sonication of the cells. To the resultant destructed cells, methanol (375 μL) and 10% zinc sulfate solution (15 μL) were added, and the resultant mixture was stirred, followed by centrifugation (2° C., 12,500×g, 5 min) and collection of the supernatant. The thus-collected supernatant was dispensed in a white 96-well microplate for fluorescence intensity measurement (200 μL/well), and then the amounts of SN-38 and an SN-38-glucuronide contained in the supernatant were measured by use of a microplate fluorometer [SPECTRA max GEMINI XS (trade name), product of Molecular Devices] […]

Compound	Resistance of the A549/SN-38 cell lines to the drug (in words) (A549/SN-38-4 cell line [1])	EC50 (A549/SN-38-4 cell line [2])	EC50 (MES-SA/Dx5 cell line)	Survival days Mean ± S.D. (P388/BCRP cell line)	Survival rate T/C (P388/BCRP cell line)	SN-38-glucuronide detected in cells (A549/SN-38-4 cell line [3])
CCc1c2c(nc3ccc(O)cc13)-c1cc3c(c(=O)n1C2)COC(=O)[C@]3(O)CC [SN-38]	particularly strong resistance					
COc1ccc2c(=O)cc(-c3ccc(OC)c(OC)c3)oc2c1 [Compound 1-14, 3′,4′,7-Trimethoxyflavone]		0.0078 µg/mL (≈ 0.025 µM)	> 1 µg/mL	18.4 ± 4.5 days	153%	
COc1cc2oc(-c3ccccc3)cc(=O)c2cc1OC [Compound 1-15, 6,7-Dimethoxyflavone]		0.16 µg/mL (≈ 0.567 µM)	> 1 µg/mL	18.2 ± 3.9 days	152%	
COc1ccc(/C=C/C(=O)c2ccc(O)cc2O)cc1OC [Compound 3-5, 2′,4′-Dihydroxy-3,4-dimethoxychalcone]		0.04 µg/mL (≈ 0.133 µM)	> 1 µg/mL	18.4 ± 0.5 days	153%	
CCc1c2c(nc3ccc(O[C@@H]4O[C@H](C(=O)O)[C@@H](O)[C@H](O)[C@H]4O)cc13)-c1cc3c(c(=O)n1C2)COC(=O)[C@]3(O)CC [SN-38-glucuronide]						virtually no SN-38-glucuronide was detected
O=C1c2c(O)ccc(O)c2C(=O)c2c(NCCNCCO)ccc(NCCNCCO)c21 [mitoxantrone]	particularly strong resistance					
